The compounds below were run against T1, human CGRP receptor (Homo sapiens, UniProt O60894+Q16602) (assay: Radioligand binding assay, [125I]-CGRP competition on SK-N-MC cell homogenates). Conditions: Binding data, [125I]-CGRP 40 pM, room temperature.
T1 construct: SK-N-MC cells that endogenously express the human CGRP receptor; endogenous in cells; host or cells: SK-N-MC cells (membrane homogenates)
Description: Tissue culture. SK-N-MC cells were grown at 37° C. in 5% CO2 as a monolayer in medium consisting of MEM with Earle's salts and L-glutamine (Gibco) supplemented with 10% fetal bovine serum (Gibco).
Radioligand binding assays. Cells were rinsed twice with phosphate-buffered saline (155 mM NaCl, 3.3 mM Na2HPO4, 1.1 mM KH2PO4, pH 7.4), and incubated for 5-10 min. at 4° C. in hypotonic lysis buffer consisting of 10 mM Tris (pH 7.4) and 5 mM EDTA. Cells were transferred from plates to polypropylene tubes (16×100 mm), homogenized and centrifuged at 32,000×g for 30 min. Pellets were resuspended in buffer consisting of 50 mM Tris (pH 7.4) and 1 mM EDTA, homogenized, and centrifuged again at 32,000×g for 30 min. Pellets were resuspended in 100 mM Tris-Cl pH 7.5, 10 mM MgCl2, 0.1% mammalian protease inhibitor cocktail (Sigma) and stored at −80° C. until needed. On the day of an experiment, homogenates were thawed and homogenized again. Binding of [^125I]-CGRP (NEN) was carried out in buffer containing 50 mM Tris-Cl pH 7.5, 5 mM MgCl2, 0.5% BSA. Homogenates (3.5 μg protein/well) were incubated with competitor compounds (solubilized in 100% DMSO at 100× their final assay concentrations) for one hour at room temperature. Then [^125I]-CGRP was added (40 pM final concentration) and the reaction incubated for one additional hour at room temperature. Assays were stopped by addition of cold wash buffer (20 mM Tris-Cl pH 7.5, 0.1% BSA) immediately followed by filtration over glass fiber filters (Whatman GF/B) previously soaked in 0.5% PEI. Non-specific binding was defined with 100 nM CGRP.

Structure (SMILES) | IC50 [nM]
CC(=O)c1ccc(NC(=O)N2CCC(=O)N3[C@@H](C4CCCCC4)C(=O)N(CCc4ccccc4Cl)C[C@H]23)cc1 [Compound 116, (6S,9aS)-8-[2-(2-Chloro-phenyl)-ethyl]-6-cyclohexyl-4,7-dioxo-hexahydro-pyrazino[1,2-a]pyrimidine-1-carboxylic acid (4-acetyl-phenyl)-amide] | 2580
CC(=O)c1ccc(NC(=O)N2CCC(=O)N3[C@@H](C4CCCCC4)C(=O)N(CCc4ccncc4)C[C@H]23)cc1 [Compound 132, (6S,9aS)-6-Cyclohexyl-4,7-dioxo-8-(2-pyridin-4-yl-ethyl)-hexahydro-pyrazino[1,2-a]pyrimidine-1-carboxylic acid (4-acetyl-phenyl)-amide] | 8000
CC(=O)c1ccc(NC(=O)N2CCC(=O)N3[C@@H](C4CCCCC4)C(=O)N(CCc4cccc(Cl)c4)C[C@H]23)cc1 [Compound 135, (6S,9aS)-8-[2-(3-Chloro-phenyl)-ethyl]-6-cyclohexyl-4,7-dioxo-hexahydro-pyrazino[1,2-a]pyrimidine-1-carboxylic acid (4-acetyl-phenyl)-amide] | 7070
CC(=O)c1ccc(OC(=O)N2CCC(=O)N3[C@@H]2CN(CCc2ccccc2)C(=O)[C@@H]3CC2CCCCC2)c(C)c1 [Compound 144, (6S,9aS)-6-Cyclohexylmethyl-4,7-dioxo-8-phenethyl-hexahydro-pyrazino[1,2-a]pyrimidine-1-carboxylic acid 4-acetyl-2-methyl-phenyl ester] | 7400
CC(O)c1ccc(NC(=O)N2CCC(=O)N3[C@@H]2CN(CCc2ccccc2)C(=O)[C@@H]3CC2CCCCC2)cc1 (stereo partly drawn) [Compound 145, (6S,9aS)-6-Cyclohexylmethyl-4,7-dioxo-8-phenethyl-hexahydro-pyrazino[1,2-a]pyrimidine-1-carboxylic acid [4-(1-hydroxy-ethyl)-phenyl]-amide] | 2730
CC(=O)c1ccc(OC(=O)N2CCC(=O)N3[C@@H](C4CCCCC4)C(=O)N(CCc4ccccc4)C[C@H]23)cc1C [Compound 148, (6S,9aS)-6-Cyclohexyl-4,7-dioxo-8-phenethyl-hexahydro-pyrazino[1,2-a]pyrimidine-1-carboxylic acid 4-acetyl-3-methyl-phenyl ester] | 3900
CC(=O)c1ccc(OC(=O)N2CCC(=O)N3[C@@H](C4CCCCC4)C(=O)N(CCc4ccccc4)C[C@H]23)cc1 [Compound 149, (6S,9aS)-6-Cyclohexyl-4,7-dioxo-8-phenethyl-hexahydro-pyrazino[1,2-a]pyrimidine-1-carboxylic acid 4-acetyl-phenyl ester] | 8560

The next compounds have a lower IC50 than those just listed; values first:

IC50 [nM] | Structure (SMILES)
2440 | CC(=O)c1ccc(NC(=O)N2CCC(=O)N3[C@@H](C4CCCCC4)C(=O)N(CCc4cccnc4)C[C@H]23)cc1 [Compound 140, (6S,9aS)-6-Cyclohexyl-4,7-dioxo-8-(2-pyridin-3-yl-ethyl)-hexahydro-pyrazino[1,2-a]pyrimidine-1-carboxylic acid (4-acetyl-phenyl)-amide]
890 | CC(=O)c1ccc(NC(=O)N2CCC(=O)N3[C@@H](C4CCCCC4)C(=O)N(CCc4ccc(F)cc4)C[C@H]23)cc1 [Compound 122, (6S,9aS)-6-Cyclohexyl-8-[2-(4-fluoro-phenyl)-ethyl]-4,7-dioxo-hexahydro-pyrazino[1,2-a]pyrimidine-1-carboxylic acid (4-acetyl-phenyl)-amide]
364 | CC(=O)c1ccc(OC(=O)N2CCC(=O)N3[C@@H]2CN(CCc2ccccc2)C(=O)[C@@H]3CC2CCCCC2)cc1C [Compound 146, (6S,9aS)-6-Cyclohexylmethyl-4,7-dioxo-8-phenethyl-hexahydro-pyrazino[1,2-a]pyrimidine-1-carboxylic acid 4-acetyl-3-methyl-phenyl ester]
87 | CC(=O)c1ccc(NC(=O)N2CCC(=O)N3[C@@H](C4CCCCC4)C(=O)N(CCc4cccs4)C[C@H]23)cc1 [Compound 138, (6S,9aS)-6-Cyclohexyl-4,7-dioxo-8-(2-thiophen-2-yl-ethyl)-hexahydro-pyrazino[1,2-a]pyrimidine-1-carboxylic acid (4-acetyl-phenyl)-amide]

Reference: patent US20050209256A1, “Novel beta-turn mimetics as calcitonin gene related peptide receptor antagonists” (priority 2004, published 2005)
